Assay results taken from patent US8226943B2, “Antibodies to notch receptors” (OncoMed Pharmaceuticals, Inc., priority 2008, dated 2012).

Columns and labels:
human Notch1 = target: T1, human Notch1 (Homo sapiens, UniProt P46531); assay: FACS binding to transiently transfected HEK-293 cells, human Notch1
T1 construct: expressed in transfected cells; host or cells: HEK-293, transient, co-transfected with GFP
Experimental: The ability of the 59R1 IgG2 antibody to cross-react with other Notch receptors was determined by FACS assay using HEK-293 cells transiently transfected with the human Notch1, Notch2, Notch3 or Notch4 expression plasmid and green fluorescent protein (GFP) as a transfection control. GFP positive cells indicated expression of the transgene. The 59R1 IgG2 was added to the cells at 2 μg/ml and detected by PE-conjugated goat anti-human Fc gamma specific (Jackson Immunochemicals). All Notch constructs were full length.
The binding epitope of 59R5 was determined. As was described in Example 3 for analysis of antibody 59R1, several point mutants were created within full-length Notch1, converting residues within EGF10 to the corresponding amino acids in human Notch 2. Mutants in full-length Notch sequences were generated by QuikChange® mutagenesis (Stratagene) and verified by sequencing. HEK 293 cells were transiently transfected with expression vectors encoding human Notch2, human Notch1, or human Notch1 with residues 382-386 mutated to the corresponding human Notch2 residues. Cells were also co-transfected with a plasmid encoding green fluorescent protein (GFP) to mark those cells that received transfected plasmid. […] 59R1 and 59R5 were detected by PE-conjugated goat anti-human Fc gamma specific antibody (Jackson Immunochemicals, #109-116-170). […]

[1] = target: T2, human Notch1 with residues 382-386 mutated to the corresponding human Notch2 residues (Homo sapiens, UniProt P46531, E383K/N382H/N386L/S385A); assay: FACS binding to mutant human Notch1 carrying Notch2 residues; settings: HEK 293 transiently transfected
T2 construct: several point mutants were created within full-length Notch1; expressed in transfected cells; host or cells: HEK 293, transient, co-transfected with GFP
T2 sequence (P46531 19-2555 N382H/E383K/S385A/N386L): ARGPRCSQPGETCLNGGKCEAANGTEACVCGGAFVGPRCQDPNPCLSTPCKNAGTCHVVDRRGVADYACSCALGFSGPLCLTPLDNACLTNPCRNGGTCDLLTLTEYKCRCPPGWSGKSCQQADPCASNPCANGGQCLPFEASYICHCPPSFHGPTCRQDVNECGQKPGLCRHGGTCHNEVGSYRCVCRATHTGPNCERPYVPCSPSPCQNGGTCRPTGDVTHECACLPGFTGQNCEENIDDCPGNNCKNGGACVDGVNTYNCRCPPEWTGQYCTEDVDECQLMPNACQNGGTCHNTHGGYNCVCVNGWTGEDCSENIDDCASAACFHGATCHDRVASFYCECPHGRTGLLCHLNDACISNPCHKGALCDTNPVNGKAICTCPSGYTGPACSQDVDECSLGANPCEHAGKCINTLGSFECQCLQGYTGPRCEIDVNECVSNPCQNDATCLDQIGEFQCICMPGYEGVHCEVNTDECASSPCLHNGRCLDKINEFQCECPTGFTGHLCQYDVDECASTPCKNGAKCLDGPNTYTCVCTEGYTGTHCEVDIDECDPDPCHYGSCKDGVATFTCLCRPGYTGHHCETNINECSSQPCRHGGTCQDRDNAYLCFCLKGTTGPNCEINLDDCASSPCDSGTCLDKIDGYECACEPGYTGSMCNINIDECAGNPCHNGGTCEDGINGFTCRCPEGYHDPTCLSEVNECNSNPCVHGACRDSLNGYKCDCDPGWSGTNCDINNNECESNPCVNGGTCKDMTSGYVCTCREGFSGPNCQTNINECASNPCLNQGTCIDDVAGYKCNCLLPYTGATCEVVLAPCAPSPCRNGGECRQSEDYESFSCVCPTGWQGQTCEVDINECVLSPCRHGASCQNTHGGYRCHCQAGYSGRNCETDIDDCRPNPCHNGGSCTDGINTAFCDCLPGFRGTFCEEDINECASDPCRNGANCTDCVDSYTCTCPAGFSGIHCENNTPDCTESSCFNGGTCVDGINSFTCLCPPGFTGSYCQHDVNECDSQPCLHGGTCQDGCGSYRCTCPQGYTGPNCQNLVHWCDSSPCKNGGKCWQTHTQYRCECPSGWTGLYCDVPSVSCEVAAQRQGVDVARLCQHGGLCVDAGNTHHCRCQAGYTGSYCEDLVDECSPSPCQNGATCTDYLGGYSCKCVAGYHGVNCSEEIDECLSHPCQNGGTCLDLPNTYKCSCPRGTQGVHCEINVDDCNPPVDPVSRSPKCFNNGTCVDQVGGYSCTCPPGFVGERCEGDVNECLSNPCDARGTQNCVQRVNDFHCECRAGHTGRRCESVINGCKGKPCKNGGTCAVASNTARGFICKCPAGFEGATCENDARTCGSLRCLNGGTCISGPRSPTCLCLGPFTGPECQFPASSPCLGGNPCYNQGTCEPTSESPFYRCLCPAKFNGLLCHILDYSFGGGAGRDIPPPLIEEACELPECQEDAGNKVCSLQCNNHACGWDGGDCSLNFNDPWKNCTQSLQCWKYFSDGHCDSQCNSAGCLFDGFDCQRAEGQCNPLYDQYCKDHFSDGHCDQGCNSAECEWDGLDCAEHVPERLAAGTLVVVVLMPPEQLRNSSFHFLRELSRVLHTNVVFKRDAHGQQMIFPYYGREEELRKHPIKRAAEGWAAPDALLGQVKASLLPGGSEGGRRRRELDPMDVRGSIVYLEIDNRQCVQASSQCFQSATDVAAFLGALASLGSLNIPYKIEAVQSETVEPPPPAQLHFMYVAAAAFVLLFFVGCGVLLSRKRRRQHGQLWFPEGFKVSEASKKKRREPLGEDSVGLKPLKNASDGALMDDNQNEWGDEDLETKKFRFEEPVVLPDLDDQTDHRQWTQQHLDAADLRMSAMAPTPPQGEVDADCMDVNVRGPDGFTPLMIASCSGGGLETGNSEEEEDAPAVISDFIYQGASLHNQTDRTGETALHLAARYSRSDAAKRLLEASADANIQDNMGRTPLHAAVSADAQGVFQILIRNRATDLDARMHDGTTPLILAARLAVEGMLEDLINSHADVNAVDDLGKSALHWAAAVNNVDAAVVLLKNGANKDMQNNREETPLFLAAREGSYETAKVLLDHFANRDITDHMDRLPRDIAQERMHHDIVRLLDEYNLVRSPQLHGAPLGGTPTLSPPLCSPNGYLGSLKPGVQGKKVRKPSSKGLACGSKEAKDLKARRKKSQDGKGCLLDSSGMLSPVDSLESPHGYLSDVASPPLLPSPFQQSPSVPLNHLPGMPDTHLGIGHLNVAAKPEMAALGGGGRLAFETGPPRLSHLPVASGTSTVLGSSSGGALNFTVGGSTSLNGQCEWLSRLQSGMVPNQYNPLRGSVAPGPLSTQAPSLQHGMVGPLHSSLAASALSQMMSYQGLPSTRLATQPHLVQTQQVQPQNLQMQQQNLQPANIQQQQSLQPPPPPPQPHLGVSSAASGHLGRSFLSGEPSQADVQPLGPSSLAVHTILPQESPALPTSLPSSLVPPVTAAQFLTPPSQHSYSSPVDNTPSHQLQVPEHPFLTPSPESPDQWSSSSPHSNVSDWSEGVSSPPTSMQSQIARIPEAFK
Experimental: A comparison analysis of the EGF 10 regions of human Notch1, Notch2, and Notch4 and the EGF 9 region of human Notch3 (the equivalent of EGF 10 in the other Notch receptors) was performed to determine likely binding sites for 59R1 (FIG. 14A). As a result of the analysis, several point mutants were created within full-length Notch2, converting residues within EGF 10 to the corresponding amino acids in human Notch 1. Also, conversely, point mutations were made in hNotch1 EGF 10 converting residues to the corresponding hN2 residues. Mutants in full-length Notch sequences were generated by QuikChange® mutagenesis (Stratagene) and verified by sequencing. Binding to the mutants was determined by FACS analysis (FIGS. 14B and 14C). 59R1 was detected by PE-conjugated goat anti-human Fc gamma specific antibody (Jackson Immunochemicals, #109-116-170). […] The corresponding residues in hNotch3 are histidine 361, alanine 364, and isoleucine 365.
The binding epitope of 59R5 was determined. As was described in Example 3 for analysis of antibody 59R1, several point mutants were created within full-length Notch1, converting residues within EGF10 to the corresponding amino acids in human Notch 2. […] 59R1 and 59R5 were detected by PE-conjugated goat anti-human Fc gamma specific antibody (Jackson Immunochemicals, #109-116-170). […]

[2] = test system: Colo-205 colon tumor cells; assay: Colo-205 colon tumor xenograft growth; assay type: in vivo, mice; settings: for Colo205 Tumor vol relative to the control group: 15 mg/kg once per week; for growth of Colo205 colon tumors: 15 mg/kg once per week after tumors established
Experimental: In one experiment, the 1×10^7 viable Colo-205 colon tumor cells were injected into 6-8 week-old immunodeficient bg/nu XID female mice on a Swiss CD-1 background. Tumors were allowed to grow to a size of between 65 to 200 mm^3 after which mice were randomized (n=10 per experimental group), and antibodies administration begun. Animals were treated with 15 mg/kg of either control 1B7.11 antibodies or anti-Notch2/3 59R1 antibodies once weekly. Tumor size was measured twice weekly, and tumor volume was calculated as described (see Michieli et al., 2004, Cancer Cell, 6:61-73).
The 59R1 IgG2 antibody was also tested in vivo in the breast tumor xenograft lines OMP-B34, OMP-B39, OMP-B44, PE13, and UM-T1, the pancreas tumor xenograft line OMP-PN8, and the colon tumor xenograft line OMP-C8. These tumor xenograft lines were established by adhering to procedures described in Al-Hajj et al., 2003, Proc. Natl. Acad. Sci. USA, 100:3983-3988. Female NOD/SCID immuno-compromised mice 7-10 weeks old were used for the establishment of the breast tumor xenografts and male NOD/SCID mice were used for the OMP-Pn8 and OMP-C8 tumor-models (Harlan, Indianapolis, Ind.). The 59R1 IgG2 antibody was also tested in vivo in a Colo-205 colon tumor xenograft model. Female immunodeficient bg/nu XID mice on a Swiss CD-1 background were used for the Colo-205 xenograft tumor model. In case of the breast cancer models, slow-releasing estrogen pellets (0.36 mg) had to be implanted. Mice were subcutaneously injected on the right flank with 50,000 (OMP-B34, OMP-B39, OMP-B44, PE13, and UM-T1) or 1×10^7 (Colo-205) viable cells, respectively, in a mixture of PBS (without magnesium or calcium) and Matrigel at a 1:1 ratio. The injected total volume per mouse was 200 μl with 50% being Matrigel. Once the tumor had reached a size between 65-200 mm^3, the mice were randomized. Antibodies were administered weekly and tumors measured twice weekly. LZ1 (a human antibody that recognizes lyzozyme) or 1B711 (a murine IgG1 antibody that recognizes the hapten trinitrophenol) was used as a control antibody for treatment of each tumor type. Tumor volume was calculated as described Al-Hajj et al. (2003). Data are expressed as the mean and the mean±S.E.M. Group means were compared using Student's two-tailed, unpaired t-test. […] All statistical analysis was performed using Microsoft EXCEL and Graph Pad PRISM.
In another embodiment, NOD/SCID mice were injected with Colo205 colon tumor cells. The mice were treated with anti-Notch2/3 antibody 59R1, anti-Notch2/3 antibody 59R5 or control antibody. Antibodies were dosed at 15 mg/kg once per week after tumors had been established.
Tumor volumes and p values for each experiment are shown relative to the control group. The PE13, C28 and Colo205 studies were carried out as described in Example 14. PN8 studies were carried out as described above. For the PN8 experiment, the control is gemcitabine alone and values for 59R1 and 59R5 are the combinations with gemcitabine. Antibodies were dosed once per week at 15 mg/kg for all experiments.

PE13 tumors = assay: Microarray analysis of 59R1 and 59R5 treated PE13 tumors; assay type: in vivo, mice; settings: for Fold Foxc2 / Fold Gzma / Fold Hey2 / Fold Heyl / Fold Mmp9 / Fold Notch3 / Fold Pdcd1lg2 / Fold Rgs4 / Fold Rgs5: treated vs. control, mean of 3 animals per group
Excerpt: The numbers are mean differential expression values for treated vs. control animals, with 3 animals per group.

[3] = established tumors, 15 mg/kg once a week

T1 sequence (P46531 19-2555): as the sequence (P46531 19-2555 N382H/E383K/S385A/N386L) above, with H364N, K365E, A367S, L368N counted along it

| Substance | binding to full-length human Notch1 (FACS) (human Notch1) | FACS binding to mutant hNotch1 with EGF 10 residues mutated to hNotch2 residues 385-389 [1] | Colo205 Tumor vol relative to the control group [2] | growth of Colo205 colon tumors [2] | Colo205 tumor growth, combination of 59R1 plus bevacizumab (AVASTIN) versus either alone [2, 3] | Colo205 tumor growth, monotherapy relative to control antibody (LZ1) [2, 3] | Colo-205 tumor growth compared to control ([2]; established tumors, 15 mg/kg once weekly, control 1B7.11) | Fold Foxc2 (PE13 tumors) | Fold Gzma (PE13 tumors) | Fold Hey2 (PE13 tumors) | Fold Heyl (PE13 tumors) | Fold Mmp9 (PE13 tumors) | Fold Notch3 (PE13 tumors) | Fold Pdcd1lg2 (PE13 tumors) | Fold Rgs4 (PE13 tumors) | Fold Rgs5 (PE13 tumors) | Notch pathway as measured by gene expression (Foxc2, Hey2, Heyl, Notch3) (PE13 tumors; microarray, p<0.01) |
| --- | --- | --- | --- | --- | --- | --- | --- | --- | --- | --- | --- | --- | --- | --- | --- | --- | --- |
| 59R1: human IgG2 antibody binding Notch2 and Notch3; heavy and light chain SEQ ID NO:16 and 18; ATCC PTA-9547 | does not bind significantly | does bind | 0.68 | inhibited | even greater inhibition of tumor growth | significantly inhibited growth | significantly reduced | −5.10 | 7.42 | −4.40 | −3.33 | −1.92 | −2.10 | 2.36 | −2.71 | −4.32 |  |
| 59R5: human antibody that specifically binds human Notch 2 and human Notch 3; heavy and light chain SEQ ID NO:49 and 18; ATCC PTA-10170 | did not bind | able to bind | 0.61 | inhibited |  |  |  | −3.00 | 2.80 | −2.46 | −2.79 | −2.35 | −1.86 | 4.97 | −2.90 | −2.14 | significantly inhibited the Notch pathway |
